# In BindingDB's records for doi:10.1021/jm060290f (Cardiff University, 2006):
# Columns and labels:
# [1] = molecular target: sterol 24-C-methyltransferase (Leishmania major); experiment: Inhibition of Leishmania major recombinant 24-SMT
# [2] = molecular target: sterol 24-C-methyltransferase (Trypanosoma brucei brucei); experiment: Inhibition of Trypanosoma brucei brucei recombinant 24-SMT
Compound,IC50 [1] [µM],IC50 [2] [µM]
"C[C@H](C(=O)NCCC[C@H](NC(=O)OCc1ccccc1)C(=O)O)[C@H]1CC[C@H]2C3CC=C4C[C@@H](O)CC[C@]4(C)[C@H]3CC[C@]12C (stereo partly drawn) [3beta-ol-23,24-bisnor-5-en-22-(5-(2-Z-amino)pentanoic acid) amide]",> 100,
"CC(=O)O[C@H]1CC[C@@]2(C)C(=CCC3[C@@H]4CC[C@H]([C@H](C)CNC[C@H](NC(=O)OC(C)(C)C)C(=O)O)[C@@]4(C)CC[C@@H]32)C1 (stereo partly drawn) [3beta-acetoxy-23,24-bisnor-5-en-22-(3-(2-Boc-amino)propanoic acid) amine]",> 100,
"CC(=O)O[C@H]1CC[C@@]2(C)C(=CCC3[C@@H]4CC[C@H]([C@H](C)C(=O)NCCC[C@H](NC(=O)OCc5ccccc5)C(=O)O)[C@@]4(C)CC[C@@H]32)C1 (stereo partly drawn) [3beta-acetoxy-23,24-bisnor-5-en-22-(5-(2-Z-amino)pentanoic acid) amide]",> 100,
"COC(=O)[C@@H](N)CCCCNC(=O)[C@@H](C)[C@H]1CC[C@H]2C3CC=C4C[C@@H](O)CC[C@]4(C)[C@H]3CC[C@]12C (stereo partly drawn) [3beta-ol-23,24-bisnor-5-en-22-(6-(2-amino) hexanoate ester) amide]",> 100,
"C[C@H](C(=O)NCCCC[C@H](NC(=O)OCc1ccccc1)C(=O)O)[C@H]1CC[C@H]2C3CC=C4C[C@@H](O)CC[C@]4(C)[C@H]3CC[C@]12C (some centres not stated) [3beat-ol-23,24-bisnor-5-en-22-(6-(2-Z-amino)hexanoic acid) amide]",> 100,
"C[C@H](CNCC(=O)O)[C@H]1CC[C@H]2C3CC=C4C[C@@H](O)CC[C@]4(C)[C@H]3CC[C@]12C (stereo partly drawn) [3beta-ol-23,24-bisnor-5-en-22-(ethanoic acid) amine]",> 100,
"COC(=O)CCCCCCCNC[C@@H](C)[C@H]1CC[C@H]2C3CC=C4C[C@@H](OC(C)=O)CC[C@]4(C)[C@H]3CC[C@]12C (stereo partly drawn) [3beta-acetoxy-23,24-bisnor-chol-5-en-22-(methyl octanoate) amine]",> 100,> 100
"C[C@H](C(=O)NCC(=O)O)[C@H]1CC[C@H]2C3CC=C4C[C@@H](O)CC[C@]4(C)[C@H]3CC[C@]12C (stereo partly drawn) [3beta-ol-23,24-bisnor-5-en-22-(ethanoic acid) amide]",> 100,
"COC(=O)CCNC[C@@H](C)[C@H]1CC[C@H]2C3CC=C4C[C@@H](OC(C)=O)CC[C@]4(C)[C@H]3CC[C@]12C (stereo partly drawn) [3beta-acetoxy-23,24-bisnor-chol-5-en-22-(methyl propanoate) amine]",> 100,
"CC(=O)O[C@H]1CC[C@@]2(C)C(=CCC3[C@@H]4CC[C@H]([C@H](C)C(=O)NCC[C@H](NC(=O)OC(C)(C)C)C(=O)O)[C@@]4(C)CC[C@@H]32)C1 (stereo partly drawn) [3beta-acetoxy-23,24-bisnor-5-en-22-(4-(2-Boc-amino)butanoic acid) amide]",> 100,
"C[C@H](C(=O)NCCCC(=O)O)[C@H]1CC[C@H]2C3CC=C4C[C@@H](O)CC[C@]4(C)[C@H]3CC[C@]12C (stereo partly drawn) [3beta-ol-23,24-bisnor-5-en-22-(butanoic acid) amide]",> 100,
"C[C@H](C(=O)NCCC(=O)O)[C@H]1CC[C@H]2C3CC=C4C[C@@H](O)CC[C@]4(C)[C@H]3CC[C@]12C (stereo partly drawn) [3beta-ol-23,24-bisnor-5-en-22-(propanoic acid) amide]",> 100,
"C[C@H](C(=O)NCCCCCC(=O)O)[C@H]1CC[C@H]2C3CC=C4C[C@@H](O)CC[C@]4(C)[C@H]3CC[C@]12C (stereo partly drawn) [3beta-ol-23,24-bisnor-5-en-22-(hexanoic acid) amide]",> 100,
"CC(=O)O[C@H]1CC[C@@]2(C)C(=CCC3[C@@H]4CC[C@H]([C@H](C)CNCCCCCCCC(=O)O)[C@@]4(C)CC[C@@H]32)C1 (stereo partly drawn) [3beta-acetoxy-23,24-bisnor-chol-5-en-22-(octanoic acid) amine]",> 100,
"C[C@H](CNCCCCCCCC(=O)O)[C@H]1CC[C@H]2C3CC=C4C[C@@H](O)CC[C@]4(C)[C@H]3CC[C@]12C (stereo partly drawn) [3beta-ol-23,24-bisnor-5-en-22-(octanoic acid) amine]",> 100,
"C[C@H](C(=O)NCCCCC(=O)O)[C@H]1CC[C@H]2C3CC=C4C[C@@H](O)CC[C@]4(C)[C@H]3CC[C@]12C (stereo partly drawn) [3beta-ol-23,24-bisnor-5-en-22-(pentanoic acid) amide]",> 100,
"C[C@H](C(=O)NCCCCCCCC(=O)O)[C@H]1CC[C@H]2C3CC=C4C[C@@H](O)CC[C@]4(C)[C@H]3CC[C@]12C (stereo partly drawn) [3beta-ol-23,24-bisnor-5-en-22-(octanoic acid) amide]",> 100,
"CC(=O)O[C@H]1CC[C@@]2(C)C(=CCC3[C@@H]4CC[C@H]([C@H](C)C(=O)NC[C@H](NC(=O)OC(C)(C)C)C(=O)O)[C@@]4(C)CC[C@@H]32)C1 (stereo partly drawn) [3beta-acetoxy-23,24-bisnor-5-en-22-(3-(2-Boc-amino)propanoic acid) amide]",> 100,
"C[C@H](CNCCCCC(=O)O)[C@H]1CC[C@H]2C3CC=C4C[C@@H](O)CC[C@]4(C)[C@H]3CC[C@]12C (stereo partly drawn) [3beta-ol-23,24-bisnor-5-en-22-(pentanoic acid) amine]",48.9,
"CC(=O)O[C@H]1CC[C@@]2(C)C(=CCC3[C@@H]4CC[C@H]([C@H](C)CNCCCC(=O)O)[C@@]4(C)CC[C@@H]32)C1 (stereo partly drawn) [3beta-acetoxy-23,24-bisnor-chol-5-en-22-(butanoic acid) amine]",> 100,
"C[C@H](CNCCCCCC(=O)O)[C@H]1CC[C@H]2C3CC=C4C[C@@H](O)CC[C@]4(C)[C@H]3CC[C@]12C (stereo partly drawn) [3beta-ol-23,24-bisnor-5-en-22-(hexanoic acid) amine]",> 100,
"COC(=O)CNC[C@@H](C)[C@H]1CC[C@H]2C3CC=C4C[C@@H](OC(C)=O)CC[C@]4(C)[C@H]3CC[C@]12C (stereo partly drawn) [3beta-acetoxy-23,24-bisnor-chol-5-en-22-(methyl ethanoate) amine]",> 100,
"COC(=O)CCCCNC[C@@H](C)[C@H]1CC[C@H]2C3CC=C4C[C@@H](OC(C)=O)CC[C@]4(C)[C@H]3CC[C@]12C (stereo partly drawn) [3beta-acetoxy-23,24-bisnor-chol-5-en-22-(methyl pentanoate) amine]",> 100,
"CC(=O)O[C@H]1CC[C@@]2(C)C(=CCC3[C@@H]4CC[C@H]([C@H](C)CNCC[C@H](NC(=O)OC(C)(C)C)C(=O)O)[C@@]4(C)CC[C@@H]32)C1 (stereo partly drawn) [3beta-acetoxy-23,24-bisnor-5-en-22-(4-(2-Boc-amino)butanoic acid) amine]",> 100,
"CC(=O)O[C@H]1CC[C@@]2(C)C(=CCC3[C@@H]4CC[C@H]([C@H](C)C(=O)NCCCC[C@H](NC(=O)OCc5ccccc5)C(=O)OCc5ccccc5)[C@@]4(C)CC[C@@H]32)C1 (stereo partly drawn) [3beta-acetoxy-23,24-bisnor-5-en-22-(6-(2-Z-amino)benzyl hexanoate) amide]",> 100,
"CC(=O)O[C@H]1CC[C@@]2(C)C(=CCC3[C@@H]4CC[C@H]([C@H](C)CNCCC[C@H](NC(=O)OCc5ccccc5)C(=O)O)[C@@]4(C)CC[C@@H]32)C1 (stereo partly drawn) [3beta-acetoxy-23,24-bisnor-5-en-22-(5-(2-Z-amino)pentanoic acid) amine]",> 100,
